Measured values reported in patent US12552829B2, “Compositions and methods for treating CNS disorders” (SAGE THERAPEUTICS, INC., priority 2019, dated 2026).

The molecules below were run against [35S]-TBPS binding, rat brain cortical membranes (GABAA receptor) (assay: Steroid inhibition of [35S]-TBPS binding). Details: 3 nM [35S]-TBPS, in the presence of 5 mM GABA, 90 min at room temp.
Experimental: [^35S]-t-Butylbicyclophosphorothionate (TBPS) binding assays using rat brain cortical membranes in the presence of 5 mM GABA has been described (Gee et al, J. Pharmacol. Exp. Ther. 1987, 241, 346-353; Hawkinson et al, Mol. Pharmacol. 1994, 46, 977-985; Lewin, A. H et al., Mol. Pharmacol. 1989, 35, 189-194).
Briefly, cortices are rapidly removed following decapitation of carbon dioxide-anesthetized Sprague-Dawley rats (200-250 g). The cortices are homogenized in 10 volumes of ice-cold 0.32 M sucrose using a glass/teflon homogenizer and centrifuged at 1500×g for 10 min at 4° C. The resultant supernatants are centrifuged at 10,000×g for 20 min at 4° C. to obtain the P2 pellets. The P2 pellets are resuspended in 200 mM NaCl/50 mM Na-K phosphate pH 7.4 buffer and centrifuged at 10,000×g for 10 min at 4° C. This washing procedure is repeated twice and the pellets are resuspended in 10 volumes of buffer. Aliquots ([…]) of the membrane suspensions are incubated with 3 nM [^35S]-TBPS and […] aliquots of test drug dissolved in dimethyl sulfoxide (DMSO) (final 0.5%) in the presence of 5 mM GABA. The incubation is brought to a final volume of 1.0 mL with buffer. Nonspecific binding is determined in the presence of […] and ranged from 15 to 25%. Following a 90 min incubation at room temp, the assays are terminated by filtration through glass fiber filters (Schleicher and Schuell No. 32) using a cell harvester (Brandel) and rinsed three times with ice-cold buffer. Filter bound radioactivity is measured by liquid scintillation spectrometry. Non-linear curve fitting of the overall data for each drug averaged for each concentration is done using Prism (GraphPad). […] The concentration of test compound producing 50% inhibition (IC50) of specific binding and the maximal extent of inhibition (Imax) are determined for the individual experiments with the same model used for the overall data and then the means±SEM.s of the individual experiments are calculated.
Various compounds are or can be screened to determine their potential as modulators of [^35S]-TBPS binding in vitro. These assays are or can be performed in accordance with the above.
`C[C@]1(O)CCC2=CC[C@H]3[C@@H]4CC[C@H]([C@](C)(O)Cn5cc(C#N)cn5)[C@@]4(C)CC[C@@H]3[C@@]2(C)CC1` [Example 18, 1-((S)-2-hydroxy-2-((1S,3aS,3bS,8S,10aR,10bS,12aS)-8-hydroxy-8,10a,12a-trimethyl-1,2,3,3a,3b,4,6,7,8,9,10,10a,10b,11,12,12a-hexadecahydrocyclohepta[a]cyclopenta[f]naphthalen-1-yl)propyl)-1H-pyrazole-4-carbonitrile] showed an IC50 of 100 to 1000 nM.
Work on `C[C@@H]1CC[C@H]([C@@](C)(O)Cn2cc(C#N)cn2)[C@@]2(C)CC[C@H]3[C@@H](CC[C@@H]4C[C@](C)(O)CC[C@@H]43)[C@H]12` [Example 24, 1-((R)-2-hydroxy-2-((1S,4R,4aS,4bR,6aR,8R,10aS,10bR,12aS)-8-hydroxy-4,8,12a-trimethyloctadecahydrochrysen-1-yl)propyl)-1H-pyrazole-4-carbonitrile] yielded an IC50 of less than 100 nM.
`C[C@]1(O)CC[C@@H]2CC[C@@H]3[C@H](CC[C@@]4(C)[C@H]3CC[C@@H]4[C@@](C)(O)Cn3cc(C#N)cn3)[C@@]2(C)CC1` [Example 23, 1-((R)-2-hydroxy-2-((1S,3aS,3bR,5aS,8S,10aS,10bS,12aS)-8-hydroxy-8,10a,12a-trimethyloctadecahydrocyclohepta[a]cyclopenta[f]naphthalen-1-yl)propyl)-1H-pyrazole-4-carbonitrile] was tested, and the IC50 was 100 to 1000 nM.
For `CC[C@@]1(O)CC[C@H]2[C@H](CC[C@@H]3[C@@H]2CC[C@@]2(C)[C@H]3CCC[C@@H]2[C@](C)(O)Cn2cc(C#N)cn2)C1` [Example 7, 1-((S)-2-((1S,4aS,4bR,6aR,8R,10aS,10bR,12aS)-8-ethyl-8-hydroxy-12a-methyloctadecahydrochrysen-1-yl)-2-hydroxypropyl)-1H-pyrazole-4-carbonitrile], the IC50 was 100 to 1000 nM.
For `COC[C@@]1(O)CC[C@H]2[C@H](CC[C@@H]3[C@@H]2CC[C@@]2(C)[C@H]3[C@H](C)CC[C@@H]2[C@@](C)(O)Cn2cc(C#N)cn2)C1` (single isomer, unassigned) [Example 32], the IC50 was less than 100 nM.
`C[C@H]1[C@H]2[C@@H]3CC[C@@H]4C[C@](C)(O)CC[C@@H]4[C@H]3CC[C@]2(C)[C@@H]([C@](C)(O)Cn2cc(C#N)cn2)C[C@@H]1C` [Example 26, 1-((S)-2-hydroxy-2-((1S,3S,4R,4aS,4bR,6aR,8R,10aS,10bR,12aS)-8-hydroxy-3,4,8,12a-tetramethyloctadecahydrochrysen-1-yl)propyl)-1H-pyrazole-4-carbonitrile] gave an IC50 of less than 100 nM.
`CCC[C@@]1(O)CC[C@H]2[C@@H](CC[C@@H]3[C@@H]2CC[C@@]2(C)[C@H]3CCC[C@@H]2[C@](C)(O)Cn2cc(C#N)cn2)C1` [Example 1, 1-((S)-2-hydroxy-2-((1S,4aS,4bR,6aS,8R,10aS,10bR,12aS)-8-hydroxy-12a-methyl-8-propyloctadecahydrochrysen-1-yl)propyl)-1H-pyrazole-4-carbonitrile] gave an IC50 of 100 to 1000 nM.
`C[C@]1(O)CCC2=CC[C@H]3[C@@H]4CC[C@H]([C@@](C)(O)Cn5cc(C#N)cn5)[C@@]4(C)CC[C@@H]3[C@@]2(C)CC1` [Example 19, 1-((R)-2-hydroxy-2-((1S,3aS,3bS,8S,10aR,10bS,12aS)-8-hydroxy-8,10a,12a-trimethyl-1,2,3,3a,3b,4,6,7,8,9,10,10a,10b,11,12,12a-hexadecahydrocyclohepta[a]cyclopenta[f]naphthalen-1-yl)propyl)-1H-pyrazole-4-carbonitrile] gave an IC50 of less than 100 nM.
`C[C@@]1(O)CCC[C@H]2[C@H](CC[C@@H]3[C@@H]2CC[C@@]2(C)[C@H]3CC[C@@H]2[C@@](C)(O)Cn2cc(C#N)cn2)C1` [Example 21, 1-((R)-2-hydroxy-2-((1S,3aS,3bR,5aR,7R,10aS,10bR,12aS)-7-hydroxy-7,12a-dimethyloctadecahydrocyclohepta[a]cyclopenta[f]naphthalen-1-yl)propyl)-1H-pyrazole-4-carbonitrile] showed an IC50 of 100 to 1000 nM.
With `CCC[C@@]1(O)CC[C@H]2[C@@H](CC[C@@H]3[C@@H]2CC[C@@]2(C)[C@H]3CCC[C@@H]2[C@@](C)(O)Cn2cc(C#N)cn2)C1` [Example 2, 1-((R)-2-hydroxy-2-((1S,4aS,4bR,6aS,8R,10aS,10bR,12aS)-8-hydroxy-12a-methyl-8-propyloctadecahydrochrysen-1-yl)propyl)-1H-pyrazole-4-carbonitrile] the IC50 was 100 to 1000 nM.
`CCC[C@@]1(O)CC[C@H]2[C@H](CC[C@@H]3[C@@H]2CC[C@@]2(C)[C@H]3[C@H](C)CC[C@@H]2[C@@](C)(O)Cn2cc(C#N)cn2)C1` (single isomer, unassigned) [Example 34] gave an IC50 of less than 100 nM.
In the case of `C[C@H]1[C@H]2[C@@H]3CC[C@@H]4C[C@](C)(O)CC[C@@H]4[C@H]3CC[C@]2(C)[C@@H]([C@@](C)(O)Cn2cc(C#N)cn2)C[C@@H]1C` [Example 27, 1-((R)-2-hydroxy-2-((1S,3S,4R,4aS,4bR,6aR,8R,10aS,10bR,12aS)-8-hydroxy-3,4,8,12a-tetramethyloctadecahydrochrysen-1-yl)propyl)-1H-pyrazole-4-carbonitrile], the IC50 is reported as less than 100 nM.
Work on `CCC[C@@]1(O)CC[C@H]2[C@H](CC[C@@H]3[C@@H]2CC[C@@]2(C)[C@H]3CCC[C@@H]2[C@](C)(O)Cn2cc(C#N)cn2)C1` [Example 9, 1-((S)-2-hydroxy-2-((1S,4aS,4bR,6aR,8R,10aS,10bR,12aS)-8-hydroxy-12a-methyl-8-propyloctadecahydrochrysen-1-yl)propyl)-1H-pyrazole-4-carbonitrile] yielded an IC50 of less than 100 nM.
For `C[C@@H]1CC[C@H]([C@](C)(O)Cn2cc(C#N)cn2)[C@@]2(C)CC[C@H]3[C@@H](CC[C@@H]4C[C@](C)(O)CC[C@@H]43)[C@H]12` [Example 25, 1-((S)-2-hydroxy-2-((1S,4R,4aS,4bR,6aR,8R,10aS,10bR,12aS)-8-hydroxy-4,8,12a-trimethyloctadecahydrochrysen-1-yl)propyl)-1H-pyrazole-4-carbonitrile], the IC50 was less than 100 nM.
For `CCC[C@@]1(O)CC[C@@]2(C)[C@@H](CC[C@@H]3[C@@H]2CC[C@@]2(C)[C@H]3CCC[C@@H]2[C@@](C)(O)Cn2cc(C#N)cn2)C1` [Example 17, 1-((R)-2-hydroxy-2-((1S,4aS,4bR,6aS,8R,10aS,10bS,12aS)-8-hydroxy-10a,12a-dimethyl-8-propyloctadecahydrochrysen-1-yl)propyl)-1H-pyrazole-4-carbonitrile], the IC50 was no less than 1000 nM.
In the case of `C[C@@]1(O)CC[C@@]2(C)[C@H](CC[C@@H]3[C@@H]2CC[C@@]2(C)[C@H]3CCC[C@@H]2[C@@](C)(O)Cn2cc(C#N)cn2)C1` [Example 15, 1-((R)-2-hydroxy-2-((1S,4aS,4bR,6aR,8R,10aS,10bS,12aS)-8-hydroxy-8,10a,12a-trimethyloctadecahydrochrysen-1-yl)propyl)-1H-pyrazole-4-carbonitrile], the IC50 is reported as 100 to 1000 nM.
With `C[C@@]1(O)CCC[C@H]2[C@H](CC[C@@H]3[C@@H]2CC[C@@]2(C)[C@H]3CC[C@@H]2[C@](C)(O)Cn2cc(C#N)cn2)C1` [Example 20, 1-((S)-2-hydroxy-2-((1S,3aS,3bR,5aR,7R,10aS,10bR,12aS)-7-hydroxy-7,12a-dimethyloctadecahydrocyclohepta[a]cyclopenta[f]naphthalen-1-yl)propyl)-1H-pyrazole-4-carbonitrile] the IC50 was less than 100 nM.
In the case of `CC[C@@]1(O)CC[C@H]2[C@@H](CC[C@@H]3[C@@H]2CC[C@@]2(C)[C@H]3CCC[C@@H]2[C@@](C)(O)Cn2cc(C#N)cn2)C1` [Example 11, 1-((R)-2-((1S,4aS,4bR,6aS,8R,10aS,10bR,12aS)-8-ethyl-8-hydroxy-12a-methyloctadecahydrochrysen-1-yl)-2-hydroxypropyl)-1H-pyrazole-4-carbonitrile], the IC50 is reported as 100 to 1000 nM.
